Patent publication US20210045420A1, “SWEETENER AND FLAVOR COMPOSITIONS, METHODS OF MAKING AND METHODS OF USE THEREOF” (EPC Natural Products Co., Ltd., priority 2018, published 2021)
“Also recorded” adds a separate entry of the source. Residues, ends and D or L forms follow the SMILES beside them.

Experiments:
[1] = Sensory evaluation of the samples prepared in Example 50 (Example 52; panel of 4, score 0-5 or +/++/+++); assay type: in vivo, human; design: key to Intensity of Smell: “+” for slight; “++” for moderate; “+++” for very strong
Protocol: The reaction partner (amino acid, carbohydrate source) were dissolved/suspended in the reaction solvent and transferred into a glass beaker filled with sand pre-heated for at least 30 minutes at the reaction temperature in a drying oven. After the planned reaction time, the vials were transferred into ice water. After cooling to room temperature, sensory analysis and analytical characterization was performed.
For evaluation of the taste profile, the samples were tested by a panel of four people. 1 trained taster tasted independently the samples first. The taster was asked to describe the taste profile and score 0-5 according to the increasing sugar likeness, bitterness, aftertaste and lingering taste profiles. The first taster was allowed to re-taste, and then make notes for the sensory attributes perceived. Afterwards, another 3 tasters tasted and the attributes were noted and discussed openly to find a suitable description. In case that more than 1 taster disagreed with the results, the tasting was repeated. In some sensory test results (above), the taste rating was expressed by “+”, which means the intensity of the factors is shown by three levels. “+” for slight, “++” for moderate and “+++” for very strong.

[2] = Sensory evaluation of GSGs and SGs, thaumatin, NHDC and combinations, Example 255; conditions: combinations of EPCalin (Thaumatin 45%) and NHDC dissolved in water
Protocol: 4.5 ppm Thaumatin (equivalent to 10 ppm EPCalin) was dissolved in water. Increasing amounts of NHDC (1-5 ppm) were added to the solution and the sensory properties were evaluated.
50 ppm (GSGs and SGs) were dissolved in water. Increasing amounts of NHDC (1-5 ppm) were added to the solution and the sensory properties were evaluated.
50 ppm (GSGs and SGs) and 4.5 ppm Thaumatin (equivalent to 10 ppm EPCalin) were dissolved in water. Increasing amounts of NHDC (1-5 ppm) were added to the solution and the sensory properties were evaluated.
Sweetness intensity was rated on 5-point scale
Sweetness intensity was rated on a 5-point scale

[3] = sweetness depends on the tested concentration compared with sucrose; cited from earlier work
[4] = Assay to test DPPH radical-scavenging activity, Example 65; assay type: biochemical; conditions: Reb-A with or without amino acids, 100° C., FIG. 49 and FIG. 50
Protocol: 1 mg 1,1-Diphenyl-2-picrylhydrazyl radical (DPPH)/ml ethanol, dilution to assay concentration were prepared in ethanol (40 μg/mL); Calibration samples were prepared with Ascorbic acid in a concentration of 0-10 μg/mL; as a negative control sample, water was used.
Samples in aqueous solution were used as such or diluted with water.
A 0.1 ml sample (or calibration standard) was mixed with 3.9 ml solution of DPPH (100 μMolar) and reacted while protected from light at room temperature for 30 min. Absorbance was determined at 517 nm against ethanol.
10 mM of amino acid and/or 10 mM sugar were dissolved in 10 ml 0.1 mM KH2PO4-buffer, pH=7.8.
The samples were kept at 100° C. in sealed glass vials (Pyrex 15 ml with screw caps) for 0 (before reaction), 2.5 or 5.0 hours. Thereafter the samples were transferred to an ice water bath and cooled down to room temperature. These samples were diluted 1:10 and used for the test assay for anti-oxidant potential.

[5] = Table 52.2, reaction in 1 ml water + 9 ml Glycerin, 0.67 h, 100° C. (Table 50.2)
[6] = Table 52.5, reaction in 1 ml water + 9 ml Glycerin, 2.0 h, 120° C. (Table 50.5)
[7] = Table 52.3, reaction in 1 ml water + 9 ml Glycerin, 0.67 h, 100° C. (Table 50.3)
[8] = Table 52.1, samples prepared in Example 50

**Q.** Which Smell [1, 5] does the source give for `C[C@H](N)C(=O)O` [0.1 mMol Ala] here?
**A.** Its Smell is “Agar”.

**Q.** And the Taste [1, 5]?
**A.** Its Taste is “sweet”.

**Q.** With `O=C[C@H](O)[C@H]1OC(=O)[C@@H](O)[C@H]1O` [0.1 mMol GlucLac] as the compound, how does the “Intensity of Smell” value [1, 6] read?
**A.** The value was “+++”.

**Q.** What about the Smell [1, 6] of the same compound?
**A.** Its Smell is “Burnt sugar”.

**Q.** What about the Taste [1, 6] of the same compound?
**A.** Its Taste is “Bitter”.

**Q.** For `NCCCC[C@H](N)C(=O)O` [0.1 mMol Lys], which Smell [1, 7] is on record?
**A.** The Smell was “Popcorn”.

**Q.** And the Taste [1, 7]?
**A.** The Taste was “Sweet”.

**Q.** For `N[C@@H](Cc1ccccc1)C(=O)O` [0.1 mMol Phe], which Smell [1, 5] is on record?
**A.** The Smell was “flowery/bloomy,; also recorded: caramel”.

**Q.** What about the Taste [1, 5] of the same compound?
**A.** Its Taste is “sweet”.

**Q.** What about the “Intensity of Smell” value [1, 6] of the same compound?
**A.** Its value is “+”.

**Q.** And the Smell [1, 6]?
**A.** Its Smell is “Caramel, burnt”.

**Q.** And the Taste [1, 6]?
**A.** The Taste was “sweet”.

**Q.** Which Smell [1, 5] does the source give for `C=C1C[C@@]23CC[C@H]4[C@@](C)(CCC[C@@]4(C)C(=O)O[C@@H]4O[C@H](CO)[C@@H](O)[C@H](O)[C@H]4O)[C@@H]2CC[C@]1(O[C@@H]1O[C@H](CO)[C@@H](O)[C@H](O[C@@H]2O[C@H](CO)[C@@H](O)[C@H](O)[C@H]2O)[C@H]1O[C@@H]1O[C@H](CO)[C@@H](O)[C@H](O)[C@H]1O)C3` [0.05 mMol Reb-A] here?
**A.** Its Smell is “neutral/unpleasant”.

**Q.** What about the Taste [1, 5] of the same compound?
**A.** Its Taste is “sweet”.

**Q.** With `COc1ccc(CCC(=O)c2c(O)cc(O[C@@H]3O[C@H](CO)[C@@H](O)[C@H](O)[C@H]3O[C@@H]3O[C@@H](C)[C@H](O)[C@@H](O)[C@H]3O)cc2O)cc1O` [10 ppm NHDC] as the compound, how does the Sensory evaluation [2] read?
**A.** Its Sensory evaluation is “Sweet, steep onset of sweetness, no lingering”.

**Q.** With `N[C@@H](CCC(=O)O)C(=O)O` [167 mMol Glu] as the compound, how does the Smell [1, 8] read?
**A.** The Smell was “caramel”.

**Q.** And the Taste [1, 8]?
**A.** The Taste was “Sweet”.

**Q.** With `COC(=O)[C@H](Cc1ccccc1)NC(=O)[C@@H](N)CC(=O)O` [Aspartame] (H-Asp-Phe-OMe) as the compound, how does the “times sweeter than sucrose / sugar” value [3] read?
**A.** The value was 160-200 times.

**Q.** Which “times sweeter than sucrose / sugar” value [3] does the source give for `OC[C@@H](O)[C@@H](O)[C@H](O)[C@H](O)CO` [Mannitol] here?
**A.** The value was 0.55-0.65 times.

**Q.** What does the source list for `N[C@@H](Cc1ccccc1)C(=O)O` [Phe 60 mMol]?
**A.** Smell [1, 8]: flowery/bloomy-caramel; Taste [1, 8]: Sweet

**Q.** Which anti-oxidant properties [4] does the source give for `C=C1C[C@@]23CC[C@H]4[C@@](C)(CCC[C@@]4(C)C(=O)O[C@@H]4O[C@H](CO)[C@@H](O)[C@H](O)[C@H]4O)[C@@H]2CC[C@]1(O[C@@H]1O[C@H](CO)[C@@H](O)[C@H](O[C@@H]2O[C@H](CO)[C@@H](O)[C@H](O)[C@H]2O)[C@H]1O[C@@H]1O[C@H](CO)[C@@H](O)[C@H](O)[C@H]1O)C3` [Reb-A, Rebaudioside A] here?
**A.** The anti-oxidant properties was “substantial anti-oxidant properties”.

**Q.** With `C=C1C[C@@]23CC[C@H]4[C@@](C)(CCC[C@@]4(C)C(=O)O[C@@H]4O[C@H](CO)[C@@H](O)[C@H](O)[C@H]4O)[C@@H]2CC[C@]1(O[C@@H]1O[C@H](CO)[C@@H](O)[C@H](O)[C@H]1O)C3` [Rubusoside] as the compound, how does the “times sweeter than sucrose / sugar” value [3] read?
**A.** Its value is 200 times.

**Q.** Which “times sweeter than sucrose / sugar” value [3] does the source give for `C[C@H](CC[C@@H](O[C@@H]1O[C@H](CO)[C@@H](O)[C@H](O)[C@H]1O[C@@H]1O[C@H](CO)[C@@H](O)[C@H](O)[C@H]1O)C(C)(C)O)[C@H]1CC[C@@]2(C)[C@H]3CC=C4[C@@H](CC[C@H](O[C@@H]5O[C@H](CO[C@@H]6O[C@H](CO)[C@@H](O)[C@H](O)[C@H]6O)[C@@H](O)[C@H](O)[C@H]5O)C4(C)C)[C@]3(C)[C@H](O)C[C@]12C` [mogroside IV] here?
**A.** The value was 126 times.

**Q.** Which “times sweeter than sucrose / sugar” value [3] does the source give for `C[C@H](CC[C@@H](O[C@@H]1O[C@H](CO[C@@H]2O[C@H](CO)[C@@H](O)[C@H](O)[C@H]2O)[C@@H](O)[C@H](O)[C@H]1O[C@@H]1O[C@H](CO)[C@@H](O)[C@H](O)[C@H]1O)C(C)(C)O)[C@H]1CC[C@@]2(C)[C@@H]3CC=C4[C@@H](CC[C@H](O[C@@H]5O[C@H](CO[C@@H]6O[C@H](CO)[C@@H](O)[C@H](O)[C@H]6O)[C@@H](O)[C@H](O)[C@H]5O)C4(C)C)[C@]3(C)[C@H](O)C[C@]12C` [mogroside V] here?
**A.** Its value is 256-344 times.

**Q.** With `O=S(=O)([O-])NC1CCCCC1.[Na+]` [sodium cyclamate] as the compound, how does the “times sweeter than sucrose / sugar” value [3] read?
**A.** The value was “about 30 times”.

**Q.** For `OC[C@H]1O[C@H](O[C@]2(CCl)O[C@H](CCl)[C@@H](O)[C@@H]2O)[C@H](O)[C@@H](O)[C@H]1Cl` [sucralose], which “times sweeter than sucrose / sugar” value [3] is on record?
**A.** Its value is “about 600 times”.

**Q.** Which “times sweeter than sucrose / sugar” value [3] does the source give for Thaumatin here?
**A.** The value was “about 2000 times”.
